Test results from ChEMBL document CHEMBL5352403, “Monoamine oxidase inhibitors: A concise review with special emphasis on structure activity relationship studies” (Eur J Med Chem, 2022).
pIC50, pKi: −log10 of the molar value. Blank lines part the entries; values can stand above or below the compound they belong to.

What was measured:
[1] = molecular target: T1, Amine oxidase [flavin-containing] B (Homo sapiens, UniProt P27338); experiment: Reversible inhibition of recombinant human MAO-B assessed as inhibition constant incubated for 30 mins by dilution assay
T1 sequence (P27338 whole entry): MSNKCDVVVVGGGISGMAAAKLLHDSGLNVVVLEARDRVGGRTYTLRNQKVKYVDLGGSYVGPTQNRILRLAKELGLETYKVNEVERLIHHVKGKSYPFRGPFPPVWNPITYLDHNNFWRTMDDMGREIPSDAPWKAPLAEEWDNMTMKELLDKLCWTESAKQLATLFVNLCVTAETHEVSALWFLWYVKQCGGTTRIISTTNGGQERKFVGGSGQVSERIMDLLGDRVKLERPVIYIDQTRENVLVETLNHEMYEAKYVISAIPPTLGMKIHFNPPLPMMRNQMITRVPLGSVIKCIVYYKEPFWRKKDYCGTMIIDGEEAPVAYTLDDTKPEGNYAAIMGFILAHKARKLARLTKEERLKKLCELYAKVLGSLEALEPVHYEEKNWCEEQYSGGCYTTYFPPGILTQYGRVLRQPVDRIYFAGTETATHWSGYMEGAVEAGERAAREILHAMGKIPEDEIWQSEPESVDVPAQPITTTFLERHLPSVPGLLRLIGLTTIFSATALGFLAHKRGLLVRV

[2] = molecular target: T2, Amine oxidase [flavin-containing] A (Homo sapiens, UniProt P21397); experiment: Inhibition of recombinant human MAO-A using kynuramine as substrate incubated for 30 mins by fluorimetric analysis
T2 sequence (P21397 whole entry): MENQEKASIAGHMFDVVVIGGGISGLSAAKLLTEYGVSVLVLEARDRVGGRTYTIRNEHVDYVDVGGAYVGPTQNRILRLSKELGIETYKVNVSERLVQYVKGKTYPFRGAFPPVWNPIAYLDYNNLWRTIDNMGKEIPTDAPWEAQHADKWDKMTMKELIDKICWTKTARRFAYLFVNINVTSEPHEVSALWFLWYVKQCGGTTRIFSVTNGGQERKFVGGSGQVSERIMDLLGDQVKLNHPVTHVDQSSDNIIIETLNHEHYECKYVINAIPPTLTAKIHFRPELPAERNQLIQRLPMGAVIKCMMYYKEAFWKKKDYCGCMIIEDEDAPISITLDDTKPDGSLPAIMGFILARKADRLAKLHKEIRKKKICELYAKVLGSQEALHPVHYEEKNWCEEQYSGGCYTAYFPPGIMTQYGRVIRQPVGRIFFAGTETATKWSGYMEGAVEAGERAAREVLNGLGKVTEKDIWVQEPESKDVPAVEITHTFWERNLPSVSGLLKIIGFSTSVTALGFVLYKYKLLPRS

[3] = molecular target: T1, Amine oxidase [flavin-containing] B; experiment: Inhibition of recombinant human MAO-B using kynuramine as substrate incubated for 30 mins by fluorimetric analysis
[4] = molecular target: T2, Amine oxidase [flavin-containing] A; experiment: Inhibition of recombinant human MAO-A using p-tyramine as substrate incubated for 45 mins by Amplex Red reagent and horseradish peroxidase based fluorescence microplate reader analysis
[5] = molecular target: T2, Amine oxidase [flavin-containing] A; experiment: Inhibition of recombinant human MAO-A expressed in baculovirus infected BTI-TN-5B1-4 insect cells using p-tyramine as substrate incubated for 15 mins by Amplex Red reagent and horseradish peroxidase based fluorometric analysis

pKi [1]: 8.40
pIC50 [2]: 4.77
pIC50 [3]: 5.53
SMILES: O=C(/C=C/C=C/c1ccccc1)c1ccco1

pIC50 [4]: 6.92
SMILES: CC(C)(C)c1ccc(S(=O)(=O)N2CCN(C(c3ccccc3)c3ccccc3)CC2)cc1

pIC50 [5]: 6.77
SMILES: O=[N+]([O-])c1cccc2cc(-c3ccccc3)oc12
